Experiment: Inhibition of Beta-glucosidase activity.

IC50, > 500 µM:
O=C1c2c(Cl)c(Cl)c(Cl)c(Cl)c2C(=O)N1CCc1ccccc1 [4,5,6,7-Tetrachloro-2-phenethyl-isoindole-1,3-dione]
O=C1c2cccc(O)c2C(=O)N1c1ccccc1 [4-Hydroxy-2-phenyl-isoindole-1,3-dione]
O=C1c2c(Cl)c(Cl)c(Cl)c(Cl)c2C(=O)N1CCCc1ccccc1 [4,5,6,7-Tetrachloro-2-(3-phenyl-propyl)-isoindole-1,3-dione]
O=C1c2c(Cl)c(Cl)c(Cl)c(Cl)c2C(=O)N1Cc1ccccc1 [2-Benzyl-4,5,6,7-tetrachloro-isoindole-1,3-dione]
O=C1c2ccc(O)cc2C(=O)N1c1ccccc1 [5-hydroxy-2-phenylisoindoline-1,3-dione]
Nc1ccc2c(c1)C(=O)N(c1ccccc1)C2=O [5-Amino-2-phenyl-isoindole-1,3-dione]
O=C1c2ccc([N+](=O)[O-])cc2C(=O)N1c1ccccc1 [5-Nitro-2-phenyl-isoindole-1,3-dione]
O=C1c2c(Cl)c(Cl)c(Cl)c(Cl)c2C(=O)N1CCCCCc1ccccc1 [4,5,6,7-Tetrachloro-2-(5-phenyl-pentyl)-isoindole-1,3-dione]
O=C1c2ccccc2C(=O)N1c1ccccc1 [2-Phenyl-isoindole-1,3-dione]
O=C1c2cccc([N+](=O)[O-])c2C(=O)N1c1ccccc1
O=C1c2ccccc2C(=O)N1CCc1ccccc1 [2-Phenethyl-isoindole-1,3-dione]
O=C1c2c(Cl)c(Cl)c(Cl)c(Cl)c2C(=O)N1CCCCc1ccccc1 [4,5,6,7-tetrachloro-2-(4-phenylbutyl)isoindoline-1,3-dione]
O=C1c2ccccc2C(=O)N1CCCc1ccccc1 [2-(3-Phenyl-propyl)-isoindole-1,3-dione]
O=C1c2c(Cl)c(Cl)c(Cl)c(Cl)c2C(=O)N1CCCCCCc1ccccc1 [4,5,6,7-Tetrachloro-2-(6-phenyl-hexyl)-isoindole-1,3-dione]
